Test results as given in patent US10487115B2, “Proteinaceous compounds and uses therefor” (UNIVERSITY OF CANBERRA, priority 2016, dated 2019).
* marks the point of attachment. Myristoyl = CCCCCCCCCCCCCC(=O)*

How the values were obtained:
PKC-θ = molecular target: T1, PKC-θ (Homo sapiens, UniProt Q04759); test: Nuclear translocation of PKC-θ in PMA-stimulated MCF7 cells (immunofluorescence, Fn/c); assay type: cell-based
T1 construct: endogenous in cells; host or cells: MCF7
Experimental: (§1) MCF7 cells were pre-seeded overnight on sterile coverslips in 12 well plates with 1 mL of completed Dulbecco's modified eagle medium (DMEM) before incubating with 50 μM of importinib4759 (synthesized in accordance with Example 1) and importinib4759_O1 (synthesized in accordance with Example 1) for 24 hr. Test peptides were not removed when MCF7 cells were stimulated with 0.65 ng/mL of phorbol 12-myristate 13-acetate (PMA) for 60 hr. Diethylpyrocarbonate (DEPC)-water was used for control (test peptides were dissolved in sterile DEPC-water). After wash with Dulbecco's phosphate buffered saline (DPBS) twice, samples on coverslips were fixed with 4% paraformaldehyde for 10 minutes and stained with PKC-θ (Cat. SC-212), PKC-θ-Phosphor-T538, PKC-β2, PKC-α, Importin α, or Importin 8 primary Antibody respectively and conjugated Alexa-488 secondary Antibody. Cell nucleus was stained with anti-fade 2-(4-amidinophenyl)-6-indolecarbamidine dihydrochloride (DAPI). When samples were dried overnight, Nikon fluorescence microscopy was used to take photos. ImageJ software was used for densimetric analysis. Fn/c was calculated using the formula: Fn/c=(nuclear density-background density)/(cytoplasmic density-background density).

PKC-α = molecular target: T2, PKC-α (Homo sapiens, UniProt P17252); test: Localization of PKC-α in PMA-stimulated MCF7 cells (immunofluorescence, Fn/c); assay type: cell-based; conditions: 50 μM, p=not significant relative to control
T2 construct: endogenous in cells; host or cells: MCF7
Experimental: as §1

PKC-β2 = molecular target: T3, PKC-β2 (Homo sapiens, UniProt P05771); test: Localization of PKC-β2 in PMA-stimulated MCF7 cells (immunofluorescence, Fn/c); assay type: cell-based; conditions: 50 μM, p=not significant relative to control
T3 construct: endogenous in cells; host or cells: MCF7
Experimental: as §1

Importin α = test: Localization of Importin α in PMA-stimulated MCF7 cells (immunofluorescence, Fn/c); assay type: cell-based, human; conditions: 50 μM, p=not significant relative to control
Experimental: as §1

Importin 8 = molecular target: T4, Importin 8 (Homo sapiens, UniProt O15397); test: Localization of Importin 8 in PMA-stimulated MCF7 cells (immunofluorescence, Fn/c); assay type: cell-based; conditions: 50 μM, p=not significant relative to control
T4 construct: endogenous in cells; host or cells: MCF7
Experimental: as §1

MCF7 cells = test: CD44hiCD24lo cancer stem cell formation in MCF-IM model (FACS); assay type: cell-based, human; conditions: importinib4759 5004 and 100 μM, importinib4759_O1 2504 and 50 μM, 24 hr before PMA 60 hr, p=0.0079 relative to control
Experimental: (§2) 5×10^4 MCF7 cells were seeded with 1 mL of complete DMEM in 12 well plates overnight, then importinib4759 (5004 and 100 μM; synthesized in accordance with Example 1) or importinib4759_O1 (2504 and 50 μM; synthesized in accordance with Example 1) were used to treat cells for 24 hr before stimulation with PMA for 60 hr. Samples were harvested by trypsinization followed by washing with DPBS containing 2% heat inactivated foetal bovine serum (HI-FBS). FACS staining were performed using anti-human CD44-APC, anti-human CD24-PE, Hoechst, and anti-human EpCAM antibody cocktails. Data was collected from BD FACSLSR-II flow cytometer. Treestar FlowJo was used for data analysis.

MDA-MB-231 cells = test: Live cell population after treatment, MDA-MB-231 cells (FACS); assay type: cell-based, human; conditions: 48 hr treatment, p<0.0001 relative to control
Experimental: as §2, with “5×10^4 MDA-MB-231” for “5×10^4 MCF7”, “for 48” for “for 24”, “before samples” for “before stimulation with PMA for 60 hr. Samples”, “2% HI-FBS.” for “2% heat inactivated foetal bovine serum (HI-FBS).”, “staining was” for “staining were”

MCF7 epithelial cells = test: Live cell population after treatment, MCF7 cells (FACS); assay type: cell-based, human; conditions: same concentration of inhibitor as in MDA-MB-231 cells
Experimental: as §2
as §2, with “5×10^4 MDA-MB-231” for “5×10^4 MCF7”, “for 48” for “for 24”, “before samples” for “before stimulation with PMA for 60 hr. Samples”, “2% HI-FBS.” for “2% heat inactivated foetal bovine serum (HI-FBS).”, “staining was” for “staining were”

NF-κB p65 = test: Nuclear expression of NF-κB p65 in PMA-stimulated MCF7 cells (immunofluorescence, Fn/c); assay type: cell-based, human; conditions: 50 μM 24 hr, PMA 60 hr, p=0.0033
Experimental: (§3) MCF7 cells were pre-seeded overnight on sterile coverslips in 12 well plates with 1 mL of completed DMEM before inhibiting with 50 μM of importinib4759_O1 (synthesized in accordance with Example 1) for 24 hr. Importinib4759_O1 was removed when MCF7 cells were stimulated with 0.65 ng/mL of PMA for 60 hr. DEPC-water was used as the control (importinib4759_O1 was dissolved in sterile DEPC-water). After washing with DPBS twice, samples on coverslips were fixed with 4% paraformaldehyde for 10 minutes and stained with p65, Rb, or p53 primary Antibody and conjugated Alexa-488 secondary Antibody. Cell nucleus was stained with anti-fade DAPI. When samples were dried overnight, Nikon fluorescence microscopy was used to take photos. ImageJ software was used for densimetric analysis. Fn/c was calculated using the formula: Fn/c=(nuclear density-background density)/(cytoplasmic density-background density).

p53 = test: Nuclear expression of p53 in PMA-stimulated MCF7 cells (immunofluorescence, Fn/c); assay type: cell-based, human; conditions: 50 μM 24 hr, PMA 60 hr, p=0.0009
Experimental: as §3

Rb = test: Expression of tumor suppressor protein Rb in PMA-stimulated MCF7 cells (immunofluorescence, Fn/c); assay type: cell-based, human; conditions: 50 μM 24 hr, PMA 60 hr, p=0.0007
Experimental: as §3

MDA-MB-231 xenograft = test: Balb/c-nude MDA-MB-231 xenograft breast cancer model: tumor volume and cancer stem cell proportion; assay type: in vivo, balb/c-nude mice
Experimental: A Balb/c-nude MDA-MB-231 xenograft breast cancer model was utilized to determine the effect of the importinib peptides alone and in combination with the chemotherapeutic, docetaxel in comparison to a randomized peptide control.
Five week old balb/c-nude mice (n=5 per test compound) were injected with MDA-MB-231 human breast carcinoma cell suspensions (2×10^6 cells in 25 μL PBS mixed with 25 μL of BD Matrigel Matrix) subcutaneously into the right mammary gland. Test compounds in a saline vehicle [4 mg/kg docetaxel; 8 mg/kg, 40 mg/kg and 60 mg/kg importinib4759 or importinib4759_O1 (synthesized in accordance with Example 1); 4 mg/kg docetaxel with 8 mg/kg importinib4759 or importinib4759_O1; 4 mg/kg docetaxel with 40 mg/kg importinib4759 or importinib4759_O1; 4 mg/kg docetaxel with 60 mg/kg importinib4759 or importinib4759_O1; or randomized peptide control] were injected intraperitoneally. Tumor volume was assessed using calipers daily over a period of five weeks following treatment. Animals were sacrificed after the five week period. Tumor grafts were removed using resection and processed into single cell suspensions. The percentage of cancer stem cells was determined using FACS analysis. FACS staining was performed using anti-human CD44-APC, anti-human CD24-PE, Hoechst, and anti-human EpCAM antibody cocktails. Data was collected from BD FACSLSR-II flow cytometer. Treestar FlowJo was used for data analysis. Significance was determined using a one-way ANOVA or Mann-Whitney T-test.

T1 sequence (Q04759 whole entry): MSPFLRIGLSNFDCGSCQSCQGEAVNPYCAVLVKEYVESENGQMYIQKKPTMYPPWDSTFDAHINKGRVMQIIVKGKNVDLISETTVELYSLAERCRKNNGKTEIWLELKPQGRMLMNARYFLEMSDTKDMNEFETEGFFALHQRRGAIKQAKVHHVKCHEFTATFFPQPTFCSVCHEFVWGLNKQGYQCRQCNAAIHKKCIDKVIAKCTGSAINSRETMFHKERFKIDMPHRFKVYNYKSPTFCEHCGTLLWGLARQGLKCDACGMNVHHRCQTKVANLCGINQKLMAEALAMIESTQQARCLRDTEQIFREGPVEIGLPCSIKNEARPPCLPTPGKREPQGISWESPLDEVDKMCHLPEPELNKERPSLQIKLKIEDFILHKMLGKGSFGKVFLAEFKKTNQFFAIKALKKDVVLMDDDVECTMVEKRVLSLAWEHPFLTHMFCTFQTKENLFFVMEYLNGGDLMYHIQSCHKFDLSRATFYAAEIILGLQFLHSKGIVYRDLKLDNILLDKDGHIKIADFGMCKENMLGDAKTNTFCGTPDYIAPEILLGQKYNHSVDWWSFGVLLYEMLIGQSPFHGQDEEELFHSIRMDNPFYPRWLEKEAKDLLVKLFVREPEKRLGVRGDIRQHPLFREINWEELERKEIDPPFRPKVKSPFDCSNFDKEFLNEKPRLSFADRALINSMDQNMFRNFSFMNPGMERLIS
T4 sequence (O15397 whole entry): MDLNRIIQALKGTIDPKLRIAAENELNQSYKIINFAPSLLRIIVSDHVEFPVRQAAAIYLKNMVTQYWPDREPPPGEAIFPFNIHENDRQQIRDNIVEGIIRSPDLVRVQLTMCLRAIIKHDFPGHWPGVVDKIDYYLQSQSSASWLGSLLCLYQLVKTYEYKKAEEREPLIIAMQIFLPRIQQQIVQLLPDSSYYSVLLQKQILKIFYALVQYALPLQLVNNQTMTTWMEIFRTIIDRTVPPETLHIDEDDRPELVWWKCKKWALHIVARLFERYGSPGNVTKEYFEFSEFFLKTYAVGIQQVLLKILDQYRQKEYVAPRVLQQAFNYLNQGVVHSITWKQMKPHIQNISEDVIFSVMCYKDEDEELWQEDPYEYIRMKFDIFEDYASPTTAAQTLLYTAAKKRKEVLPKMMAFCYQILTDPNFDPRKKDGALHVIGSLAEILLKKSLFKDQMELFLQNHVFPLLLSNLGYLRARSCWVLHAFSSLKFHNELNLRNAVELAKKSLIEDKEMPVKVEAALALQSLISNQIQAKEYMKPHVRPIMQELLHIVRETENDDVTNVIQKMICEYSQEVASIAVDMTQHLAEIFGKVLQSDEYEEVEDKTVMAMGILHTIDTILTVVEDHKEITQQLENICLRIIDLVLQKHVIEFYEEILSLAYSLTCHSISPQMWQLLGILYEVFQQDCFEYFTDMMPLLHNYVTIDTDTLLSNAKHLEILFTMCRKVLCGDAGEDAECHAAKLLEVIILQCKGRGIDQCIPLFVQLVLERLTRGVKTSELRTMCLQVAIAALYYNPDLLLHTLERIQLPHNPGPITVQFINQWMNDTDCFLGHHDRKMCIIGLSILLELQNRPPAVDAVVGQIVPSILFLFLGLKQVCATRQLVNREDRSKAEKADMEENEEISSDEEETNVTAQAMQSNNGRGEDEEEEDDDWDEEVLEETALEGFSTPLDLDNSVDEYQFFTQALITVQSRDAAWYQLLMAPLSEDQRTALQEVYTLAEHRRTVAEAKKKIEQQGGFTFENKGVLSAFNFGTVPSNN
T3 sequence (P05771 1-673 isoform P05771-2): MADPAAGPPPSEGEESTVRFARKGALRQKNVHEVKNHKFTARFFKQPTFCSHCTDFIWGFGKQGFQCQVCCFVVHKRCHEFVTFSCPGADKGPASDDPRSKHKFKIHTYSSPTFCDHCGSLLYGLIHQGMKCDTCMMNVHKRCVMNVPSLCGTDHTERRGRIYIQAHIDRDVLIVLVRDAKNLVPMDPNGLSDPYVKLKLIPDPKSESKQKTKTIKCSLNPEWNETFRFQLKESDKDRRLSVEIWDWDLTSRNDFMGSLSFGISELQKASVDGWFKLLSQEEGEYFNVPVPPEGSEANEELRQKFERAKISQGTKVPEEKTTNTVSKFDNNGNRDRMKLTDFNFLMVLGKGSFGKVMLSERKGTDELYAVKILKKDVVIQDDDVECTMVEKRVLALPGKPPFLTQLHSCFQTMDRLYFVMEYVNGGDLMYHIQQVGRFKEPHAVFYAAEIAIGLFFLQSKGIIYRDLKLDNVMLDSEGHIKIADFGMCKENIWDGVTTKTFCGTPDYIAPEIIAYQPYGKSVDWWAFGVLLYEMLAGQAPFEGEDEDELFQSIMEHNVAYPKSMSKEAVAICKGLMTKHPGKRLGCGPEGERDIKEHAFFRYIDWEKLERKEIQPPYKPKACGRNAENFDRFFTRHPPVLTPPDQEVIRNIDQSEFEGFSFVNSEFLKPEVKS

Substance: RRKRIDWPPRRKPK-OH (Myristoyl-RRKRIDWPPRRKPK-OH; SMILES CCCCCCCCCCCCCC(=O)N[C@@H](CCCNC(=N)N)C(=O)N[C@@H](CCCNC(=N)N)C(=O)N[C@@H](CCCCN)C(=O)N[C@@H](CCCNC(=N)N)C(=O)N[C@H](C(=O)N[C@@H](CC(=O)O)C(=O)N[C@@H](Cc1c[nH]c2ccccc12)C(=O)N1CCC[C@H]1C(=O)N1CCC[C@H]1C(=O)N[C@@H](CCCNC(=N)N)C(=O)N[C@@H](CCCNC(=N)N)C(=O)N[C@@H](CCCCN)C(=O)N1CCC[C@H]1C(=O)N[C@@H](CCCCN)C(=O)O)[C@@H](C)CC) [Importinib4759_O1, tested N-myristoylated]
- blocking of nuclear PKC-θ (nuclear translocation) (PKC-θ; 50 μM peptide 24 hr, then PMA 0.65 ng/mL 60 hr, N-myristoylated peptides, p<0.0001 relative to control): capable of blocking nuclear PKC-θ
- capacity to prevent PKC-θ nuclear translocation compared to importinib4759 (PKC-θ; 50 μM, PMA stimulated): significantly higher capacity to prevent PKC-θ nuclear translocation compared to importinib4759
- effect on distribution of PKC-α (PKC-α): had no effect
- effect on distribution of PKC-β2 (PKC-β2): had no effect
- effect on distribution of Importin α (Importin α): had no effect
- effect on distribution of Importin 8 (Importin 8): had no effect
- cancer stem cell (CD44hiCD24lo) formation (MCF7 cells): inhibited
- effect on live cell population of MDA-MB-231 cells (MDA-MB-231 cells): cleared virtually all MDA-MB-231 cells
- effect on live cell population of MCF7 epithelial cells (MCF7 epithelial cells): minimal effect
- nuclear expression of NF-κB p65 (NF-κB p65): significantly inhibited nuclear expression
- nuclear expression of p53 (p53): significantly inhibited nuclear expression
- expression of tumor suppressor protein Rb (Rb): enhanced expression
- cancer stem cell (CD44highCD24low) population in tumor grafts (MDA-MB-231 xenograft; FACS of resected tumor grafts after five weeks): significantly abrogated the cancer stem cell population
- tumor volume in comparison to the control or docetaxel treatment alone (MDA-MB-231 xenograft; intraperitoneal, peptide 8, 40 and 60 mg/kg, docetaxel 4 mg/kg, five weeks): abrogated tumor volume
- tumor volume over time (MDA-MB-231 xenograft; intraperitoneal, peptide 8, 40 and 60 mg/kg, docetaxel 4 mg/kg, five weeks, n=5): reduced tumor volume over time
